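Exposure lasted 48 hours, with cells grown in 96-well plates and compounds tested at five concentrations. Abbreviation: GI50, concentration required for 50% inhibition of growth.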 The source made the active and inactive calls. No stated cut-off is given here; in the data, active = GI50 up to about 1.1 µM and inactive = higher.
Experiments:
Assay in all cases: NCI tumour cell line growth inhibition, 48 h
NCI-H23 = test system: NCI-H23
K562 = test system: K562
SNB-19 = test system: SNB-19
SN12C = test system: SN12C
SK-MEL-5 = test system: SK-MEL-5
HCT-116 = test system: HCT-116
SW-620 = test system: SW-620
NCI-H460 = test system: NCI-H460
UO-31 = test system: UO-31
OVCAR-8 = test system: OVCAR-8
U-251 = test system: U-251
HOP-62 = test system: HOP-62
MOLT-4 = test system: MOLT-4
SNB-75 = test system: SNB-75
OVCAR-4 = test system: OVCAR-4
HT-29 = test system: HT-29
NCI-H522 = test system: NCI-H522
UACC-62 = test system: UACC-62
EKVX = test system: EKVX
Malme-3M = test system: Malme-3M

Row | SMILES | GI50 (NCI-H23) | GI50 (K562) | GI50 (SNB-19) | GI50 (SN12C) | GI50 (SK-MEL-5) | GI50 (HCT-116) | GI50 (SW-620) | GI50 (NCI-H460) | GI50 (UO-31) | GI50 (OVCAR-8) | GI50 (U-251) | GI50 (HOP-62) | GI50 (MOLT-4) | GI50 (SNB-75) | GI50 (OVCAR-4) | GI50 (HT-29) | GI50 (NCI-H522) | GI50 (UACC-62) | GI50 (EKVX) | GI50 (Malme-3M)
1 | CN1C[C@H]2[C@@H](C1=O)[C@H](c1ccccc1)ON2C | > 100 µM (inactive) | > 100 µM (inactive) | > 100 µM (inactive) | > 100 µM (inactive) | > 100 µM (inactive) | > 100 µM (inactive) | > 100 µM (inactive) | > 100 µM (inactive) | > 100 µM (inactive) | > 100 µM (inactive) | > 100 µM (inactive) | > 100 µM (inactive) | > 100 µM (inactive) | > 100 µM (inactive) | > 100 µM (inactive) | > 100 µM (inactive) | > 100 µM (inactive) |  |  | 
2 | N=C(N)N/N=C\c1c(-c2cccc([N+](=O)[O-])c2)nc2sccn12 | 3.94 µM (inactive) | 2.8 µM (inactive) | 2.09 µM (inactive) | 2.21 µM (inactive) | 14.6 µM (inactive) | 7.73 µM (inactive) | 2.08 µM (inactive) | 24.4 µM (inactive) | 18.5 µM (inactive) | 1.81 µM (inactive) | 2.79 µM (inactive) | 3.54 µM (inactive) | 1.92 µM (inactive) |  | 1.76 µM (inactive) | 1.96 µM (inactive) | 3.45 µM (inactive) | 29 µM (inactive) | 15.9 µM (inactive) | 24.4 µM (inactive)
3 | COc1ccc(-c2nnc3c4ccccc4sn23)cc1 | 13.3 µM (inactive) | 16.6 µM (inactive) | 29.9 µM (inactive) | 17.8 µM (inactive) | 34.4 µM (inactive) | 30.2 µM (inactive) | 49 µM (inactive) | 4.58 µM (inactive) | 14.3 µM (inactive) | 32.5 µM (inactive) | 23.4 µM (inactive) | 5.69 µM (inactive) | 15.3 µM (inactive) | 10.2 µM (inactive) | 47 µM (inactive) | 26.8 µM (inactive) |  | 35.4 µM (inactive) | 50.7 µM (inactive) | 
4 | N#C/C(=C\c1ccc(Br)cc1)c1nc(-c2cc3ccccc3oc2=O)cs1 |  | 37.2 µM (inactive) | 10.7 µM (inactive) | 20 µM (inactive) | 21.8 µM (inactive) | 17.5 µM (inactive) | 19.8 µM (inactive) | 16.7 µM (inactive) | 20.2 µM (inactive) | 15.9 µM (inactive) | 9.93 µM (inactive) | 8.73 µM (inactive) | > 50 µM (inactive) | 7.14 µM (inactive) | 17.2 µM (inactive) | 23.3 µM (inactive) | 7.98 µM (inactive) | 10.2 µM (inactive) | 13.3 µM (inactive) | 10.5 µM (inactive)
5 | CC1=C2C(=C[C@H]3[C@]4(C)CCCC(C)(C)[C@H]4CC[C@]34O[C@H]24)OC1=O | > 100 µM (inactive) | > 100 µM (inactive) | > 100 µM (inactive) | > 100 µM (inactive) | > 100 µM (inactive) | > 100 µM (inactive) | > 100 µM (inactive) | > 100 µM (inactive) | > 100 µM (inactive) |  | > 100 µM (inactive) | > 100 µM (inactive) | > 100 µM (inactive) | > 100 µM (inactive) | > 100 µM (inactive) | > 100 µM (inactive) | > 100 µM (inactive) | > 100 µM (inactive) | > 100 µM (inactive) | > 100 µM (inactive)
6 | O=C1C[C@@H](C(=O)OCc2ccccc2)NC(=O)C[C@@H](C(=O)OCc2ccccc2)NC(=O)C[C@@H](C(=O)OCc2ccccc2)N1 | 47 µM (inactive) | 4.16 µM (inactive) | 45.5 µM (inactive) | > 100 µM (inactive) | > 100 µM (inactive) | > 84.1 µM (inactive) | > 100 µM (inactive) | > 100 µM (inactive) | > 100 µM (inactive) | > 100 µM (inactive) | 12.1 µM (inactive) | 33.9 µM (inactive) | 4.15 µM (inactive) | 1.06 µM (active) | > 100 µM (inactive) | > 100 µM (inactive) | 36.6 µM (inactive) | 64.7 µM (inactive) | > 100 µM (inactive) | 
7 | CC1(C)CNC(=O)C2(/C=N/C(C)(C)CNC(=O)C3(/C=N/1)CCCO3)CCCO2 (stereo unspecified) | > 10 µM (inactive) | > 10 µM (inactive) | > 10 µM (inactive) | > 10 µM (inactive) | > 10 µM (inactive) | > 10 µM (inactive) | > 10 µM (inactive) |  |  | > 10 µM (inactive) | > 10 µM (inactive) | > 10 µM (inactive) | > 10 µM (inactive) | > 10 µM (inactive) | > 10 µM (inactive) | > 10 µM (inactive) | > 10 µM (inactive) | > 10 µM (inactive) | > 10 µM (inactive) | > 10 µM (inactive)
8 | CC(C)(C)[Si](C)(C)OCC1CCC(n2cnc3c(N)ncnc32)O1 (stereo unspecified) | 30.6 µM (inactive) | 3.45 µM (inactive) | > 100 µM (inactive) | 69.2 µM (inactive) | 17.1 µM (inactive) | 39.2 µM (inactive) | > 100 µM (inactive) | 54.7 µM (inactive) | 44.4 µM (inactive) | 45.4 µM (inactive) | > 100 µM (inactive) | 95.7 µM (inactive) | 14.7 µM (inactive) | 67.8 µM (inactive) | > 100 µM (inactive) | 94.4 µM (inactive) |  | 59.2 µM (inactive) |  | 
9 | O=C1C2C(C(=O)N1OS(=O)(=O)c1ccccc1)N(Cc1ccccc1)C(=O)N2Cc1ccccc1 (stereo unspecified) | > 100 µM (inactive) | > 100 µM (inactive) | > 100 µM (inactive) | > 100 µM (inactive) | > 100 µM (inactive) | > 100 µM (inactive) | > 100 µM (inactive) | > 100 µM (inactive) | > 100 µM (inactive) |  | > 100 µM (inactive) | > 100 µM (inactive) | > 100 µM (inactive) | 57.1 µM (inactive) | > 100 µM (inactive) | > 100 µM (inactive) | > 100 µM (inactive) | > 100 µM (inactive) | > 100 µM (inactive) | > 100 µM (inactive)
10 | Brc1ccc(C2CC(c3cccc4ccccc34)=Nc3ccccc3S2)cc1 (stereo unspecified) | 86.5 µM (inactive) | 26.2 µM (inactive) | > 100 µM (inactive) | > 100 µM (inactive) | > 100 µM (inactive) | 31.3 µM (inactive) | 16.7 µM (inactive) | > 100 µM (inactive) | 54.3 µM (inactive) | > 100 µM (inactive) | 30.2 µM (inactive) | > 100 µM (inactive) | 23.5 µM (inactive) | > 100 µM (inactive) | 44.6 µM (inactive) | 46.7 µM (inactive) | 22.5 µM (inactive) | 71.9 µM (inactive) | 37.1 µM (inactive) | 
11 | CC(=O)N(CCN1C(=O)c2ccccc2C1=O)CCN1C(=O)c2ccccc2C1=O | > 100 µM (inactive) | > 100 µM (inactive) | > 100 µM (inactive) | > 100 µM (inactive) | > 100 µM (inactive) | > 100 µM (inactive) | > 100 µM (inactive) | > 100 µM (inactive) | > 100 µM (inactive) | > 100 µM (inactive) | > 100 µM (inactive) | > 100 µM (inactive) | > 100 µM (inactive) | > 100 µM (inactive) | > 100 µM (inactive) |  | > 100 µM (inactive) | > 100 µM (inactive) | > 100 µM (inactive) | 
12 | COc1c(Cl)cc(S(=O)O)cc1Cl | > 100 µM (inactive) | > 100 µM (inactive) | > 100 µM (inactive) | > 100 µM (inactive) |  | > 100 µM (inactive) |  | > 100 µM (inactive) | > 100 µM (inactive) |  | > 100 µM (inactive) | > 100 µM (inactive) | > 100 µM (inactive) | > 100 µM (inactive) | > 100 µM (inactive) | > 100 µM (inactive) | > 100 µM (inactive) | > 100 µM (inactive) | > 100 µM (inactive) | > 100 µM (inactive)
13 | COc1cc(C2c3[nH]c4ccccc4c3[C@@H](Nc3ccc(F)cc3)[C@H]3COC(=O)N23)cc(OC)c1O (stereo partly specified) | 1.42 µM (inactive) | 1.45 µM (inactive) | 1.26 µM (inactive) | 1.35 µM (inactive) | 1.14 µM (inactive) | 1.89 µM (inactive) | 1.23 µM (inactive) | 0.957 µM (active) | 1.09 µM (active) | 2.7 µM (inactive) | 1.45 µM (inactive) | 1.01 µM (active) | 0.287 µM (active) | 1.69 µM (inactive) | 2.55 µM (inactive) | 3.12 µM (inactive) |  | 1.37 µM (inactive) | 2.55 µM (inactive) | 2.49 µM (inactive)
14 | C[C@H]1[C@@H]2C[C@@H]3O[C@@]34[C@H]3CCC5Cc6nc7c(nc6C[C@@]5(C)[C@]3(O)CC(=O)[C@@]24CO[C@]12OC(C)(C)C[C@@H]2O)CC1CC[C@@H]2C3=C[C@H]4O[C@@]5(OC(C)(CO)C[C@@H]5O)[C@H](C)[C@@]4(O)[C@]3(C)[C@@H](O)CC2[C@]1(C)C7 (stereo partly specified) | 0.0414 µM (active) | 0.0266 µM (active) |  | > 3.52 µM (inactive) | 0.0873 µM (active) | 0.0583 µM (active) | 0.0333 µM (active) | 0.00955 µM (active) | 0.223 µM (active) | 3.02 µM (inactive) | 0.00511 µM (active) | 0.0109 µM (active) |  | 0.00071 µM (active) | 0.194 µM (active) | 0.014 µM (active) | 0.0955 µM (active) | 0.0175 µM (active) | 0.0573 µM (active) | 0.0381 µM (active)
